From ChEMBL document CHEMBL1201862, “PubChem BioAssay data set” (2004)
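Following 48 hours of exposure in 96-well plates, responses at five concentrations were used to interpolate endpoints linearly. Abbreviation: GI50, concentration required for 50% inhibition of growth.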 Calls of active or inactive are those of the source. No stated cut-off is given here; in the data, active = GI50 up to about 1.1 µM and inactive = higher.

Legend:
Assay in all cases: growth of human tumour cells (NCI), 48 h
ACHN = tested on: ACHN
CAKI-1 = tested on: CAKI-1
HT-29 = tested on: HT-29
IGROV-1 = tested on: IGROV-1
K562 = tested on: K562
OVCAR-3 = tested on: OVCAR-3
OVCAR-5 = tested on: OVCAR-5
SF-268 = tested on: SF-268
SK-MEL-2 = tested on: SK-MEL-2
SK-MEL-5 = tested on: SK-MEL-5
SK-OV-3 = tested on: SK-OV-3
SNB-75 = tested on: SNB-75
SW-620 = tested on: SW-620
U-251 = tested on: U-251
UACC-62 = tested on: UACC-62
NCI-H460 = tested on: NCI-H460
MOLT-4 = tested on: MOLT-4
RPMI-8226 = tested on: RPMI-8226

Measured: GI50

Cc1noc(C)c1CCCOC1COc2ccccc2OCCOCCOc2ccccc2OC1
inactive: ACHN > 100 µM | CAKI-1 > 100 µM | HT-29 > 100 µM | IGROV-1 > 100 µM | K562 > 100 µM | OVCAR-3 > 100 µM | OVCAR-5 > 100 µM | SF-268 > 100 µM | SK-MEL-2 > 100 µM | SK-MEL-5 > 100 µM | SK-OV-3 > 100 µM | SNB-75 65.8 µM | SW-620 > 100 µM | U-251 > 100 µM | UACC-62 27.5 µM

CCOC(=O)CC1=N/C(=N/c2cc(Cl)ccc2Cl)SC1
inactive: ACHN > 100 µM | CAKI-1 > 100 µM | HT-29 54.1 µM | IGROV-1 > 100 µM | K562 42.5 µM | NCI-H460 > 100 µM | OVCAR-3 62.4 µM | OVCAR-5 > 100 µM | SF-268 > 100 µM | SK-MEL-2 > 100 µM | SK-MEL-5 > 100 µM | SK-OV-3 > 100 µM | SNB-75 78 µM | SW-620 > 100 µM | U-251 > 100 µM | UACC-62 > 100 µM

O=C(Nc1ccc(Cl)cc1C(=O)O)c1ccc([N+](=O)[O-])cc1
inactive: ACHN 17.1 µM | HT-29 18.9 µM | IGROV-1 17.4 µM | K562 20.8 µM | MOLT-4 22.4 µM | NCI-H460 18.5 µM | OVCAR-3 22.4 µM | OVCAR-5 22.5 µM | RPMI-8226 26.5 µM | SF-268 20.2 µM | SK-MEL-2 3.72 µM | SK-MEL-5 20.3 µM | SK-OV-3 18.2 µM | SNB-75 45.4 µM | SW-620 29.7 µM | U-251 18.8 µM | UACC-62 14.5 µM

Cc1cc2c(C)nn(Cc3ccccc3)c2c(C(=O)O)c1C
inactive: ACHN > 100 µM | IGROV-1 > 100 µM | MOLT-4 > 100 µM | OVCAR-3 > 100 µM | OVCAR-5 > 100 µM | RPMI-8226 > 100 µM | SF-268 > 100 µM | SK-MEL-2 > 100 µM | SK-OV-3 > 100 µM | SW-620 > 100 µM | U-251 > 100 µM | UACC-62 > 100 µM

COc1ccc(-c2nnc(-c3c(C)n(C)n(-c4ccccc4)c3=O)o2)cc1
inactive: ACHN > 100 µM | HT-29 > 100 µM | IGROV-1 > 100 µM | K562 > 100 µM | MOLT-4 > 100 µM | NCI-H460 > 100 µM | OVCAR-3 > 100 µM | RPMI-8226 > 100 µM | SF-268 > 100 µM | SK-MEL-2 > 100 µM | SK-OV-3 > 100 µM | SNB-75 > 100 µM | SW-620 > 100 µM | U-251 > 100 µM | UACC-62 > 100 µM

C/C(=N/NC(=O)c1ccccc1O)c1ccc(/C(C)=N\NC(=O)c2ccccc2O)c2nc3cc(C)c(C)cc3nc12
inactive: ACHN > 100 µM | HT-29 > 100 µM | IGROV-1 > 100 µM | K562 > 100 µM | MOLT-4 > 100 µM | NCI-H460 > 100 µM | OVCAR-3 > 100 µM | OVCAR-5 > 100 µM | SF-268 > 100 µM | SK-MEL-2 > 100 µM | SK-MEL-5 > 100 µM | SK-OV-3 > 100 µM | SNB-75 38.7 µM | SW-620 > 100 µM | U-251 > 100 µM | UACC-62 > 100 µM

CCC1CCc2c(OC)ccc(OCC(=O)O)c2C1=O (stereo not given)
inactive: ACHN > 100 µM | IGROV-1 > 100 µM | K562 > 100 µM | MOLT-4 > 100 µM | OVCAR-3 > 100 µM | OVCAR-5 > 100 µM | RPMI-8226 > 100 µM | SF-268 > 100 µM | SK-MEL-2 > 100 µM | SK-MEL-5 > 100 µM | SK-OV-3 > 100 µM | SNB-75 > 100 µM | SW-620 > 100 µM | U-251 > 100 µM | UACC-62 > 100 µM

CC(=O)OC1[C@H]2c3cc4c(cc3CN3CCC(=C[C@@H]1O)C23)OCO4 (stereo not given in full)
inactive: ACHN 33.1 µM | HT-29 > 100 µM | IGROV-1 > 100 µM | K562 > 100 µM | MOLT-4 > 100 µM | NCI-H460 > 100 µM | OVCAR-3 > 100 µM | RPMI-8226 > 100 µM | SF-268 37.2 µM | SK-OV-3 > 100 µM | SNB-75 47.6 µM | SW-620 > 100 µM | U-251 > 100 µM | UACC-62 53.7 µM

O=C1C2c3[nH]c4ccccc4c3[C@@H]3CCCCCCCCCCC3C2C(=O)N1c1ccccc1 (stereo not given in full)
inactive: ACHN 25.9 µM | HT-29 27.6 µM | IGROV-1 18.7 µM | K562 8.67 µM | NCI-H460 17.3 µM | OVCAR-3 16 µM | OVCAR-5 > 100 µM | RPMI-8226 38.6 µM | SF-268 13.6 µM | SK-MEL-5 78 µM | SK-OV-3 10.4 µM | SNB-75 3.18 µM | SW-620 15.2 µM | U-251 18.2 µM | UACC-62 20.1 µM
